Results taken from patent US20230085945A1, “ORTHOGONAL SAFETY SWITCHES TO ELIMINATE GENETICALLY ENGINEERED CELLS” (The Board of Trustees of the Leland Stanford Junior …, priority 2020, published 2023).

Experiments:
[1] = system: NANOG mRNA and differentiation marker genes in NANOG^iCasp9-YFP hPSCs and differentiated cell-types; test: qPCR of NANOG and marker gene expression after AP20187; assay type: cell-based, human; settings: for expression of differentiation markers in differentiated cell-types: AP20187 1 nM, 24 hours
Description: FIG. 9: Efficacy of the NANOG^iCasp9-YFP safety switch (related to FIG. 3). A) Undifferentiated NANOG^iCasp9-YFP hPSCs were treated with AP20187 at the indicated concentrations for 24 hours, and then the percentage of viable remaining cells was subsequently analyzed using FACS analysis (left) and alamar blue staining (right). For the FACS analysis, the percentage of cells shown represents viable cells (i.e., DAPI-negative cells obtained after DAPI staining) that were then gated for YFP+ (i.e., NANOG^+) cells. For the alamar blue analysis, wild-type hPSCs were used as a negative control. […] AP20187 doses equal to or greater than 100 nM may prevent efficient killing of NANOG^iCasp9-YFP hPSCs by considerably downregulating NANOG. Gene expression is depicted normalized to the reference gene YWHAZ (i.e., YWHAZ=1.0). C) Undifferentiated NANOG^iCasp9-YFP hPSCs were treated with the indicated doses of AP20187 for various lengths of time (6, 12, 24, 48, 72 hours) and then alamar blue assay was performed immediately thereafter to quantify the extent of cell death. […] D) Immunofluorescent imaging of NANOG^iCasp9-YFP hESCs in the undifferentiated state and after differentiation into day 6 sclerotome as marked by TWIST1 expression, both without and with treatment of cells with 1 nM AP20187 for 24 hours. […] The following marker genes were assessed in each respective cell-type: sclerotome (bone) progenitors (TWIST1, SOX9, PAX1, PAX9), liver progenitors (SOX17, HNF4A, AFP, TBX3), and forebrain (neural) progenitors (PAX6, FOXG1, OTX2, SIX3). F) Further validation of NANOG^iCasp9-YFP using a simulated mixed cell culture assay. NANOG^iCasp9-YFP undifferentiated hPSCs and hPSC-derived derived sclerotome cells were mixed at a 3:7 ratio, respectively. Mixed cells were treated with AP20187, and 24 hours post-treatment, FACS analysis was done to assess remaining NANOG^iCasp9-YFP hPSCs in culture.
RNA extraction, reverse transcription and quantitative PCR. Undifferentiated or differentiated hPSCs were lysed in […] of RLT Plus Buffer and RNA was extracted using the RNeasy Plus Mini Kit (Qiagen) according to the manufacturer's protocol. 300 ng of total RNA was reverse transcribed into cDNA for qPCR using the High-Capacity cDNA Reverse Transcription Kit (Applied Biosystems) according to the manufacturer's protocol. qPCR was performed in 384-well format as previously described (Loh et al., 2016) on a QuantStudio 5 qPCR machine (Thermo Fisher). Expression of all genes was first normalized to the levels of the reference gene YWHAZ, and then plotted relative to the levels of YWHAZ (i.e., 1.0=equivalent to YWHAZ). The following forward and reverse primer sequences were used to detect the expression of the respective genes: […]

[2] = system: NANOG^iCasp9-YFP hPSC-derived day-6 liver progenitors, bone progenitors and forebrain progenitors; test: Survival of differentiated hPSC-derived tissue progenitors after AP20; assay type: cell-based, human; settings: 24-hour AP20 treatment
Description: FIG. 3: Implementation of the NANOG^iCasp9-YFP safety switch. A) Schema depicting how drug AP20187 induces dimerization of Caspase9 in undifferentiated NANOG^iCasp9-YFP hESCs, subsequently triggering cell death (top left). NANOG^iCasp9-YFP hESCs were treated for 24 hours with increasing concentrations of AP20187. AP20187 was withdrawn, and cultures were further grown in mTeSR1 to allow any surviving hESCs to grow; any surviving colonies were counted 1 week later (top right). Alkaline phosphatase staining of whole wells of a 12-well plate after 24-hour treatment with AP20187 (bottom). […] Bioluminescent imaging of mice occurred weekly for 5 weeks with no transplant control (NTC) animals included for relative luminescence normalization. Total flux (photons/sec) was measured for each animal and averaged. […] The percentage of surviving cells was calculated relative to untreated controls. […]
Cell count assay—hESCs were dissociated with EDTA and 5×10^5 cells were plated per well of a 6-well plate that was pre-coated with Matrigel. […] Subsequently, cells were dissociated and the number of viable cells were counted using the Bio-Rad TC20™ Automated Cell Counter (trypan blue exclusion). […]

## CC[C@H](C(=O)N1CCCC[C@H]1C(=O)O[C@H](CCc1ccc(OC)c(OC)c1)c1cccc(OCC(=O)NCC(CNC(=O)COc2cccc([C@@H](CCc3ccc(OC)c(OC)c3)OC(=O)[C@@H]3CCCCN3C(=O)[C@@H](CC)c3cc(OC)c(OC)c(OC)c3)c2)CN(C)C)c1)c1cc(OC)c(OC)c(OC)c1 [AP20]
[1]
  expression of differentiation markers in differentiated cell-types: not substantially effected
[1]; listed as AP20187
  expression of differentiation markers in differentiated cell-types: did not substantially impact marker gene expression
[1]; NANOG^iCasp9-YFP hPSCs
  doses that may prevent efficient killing by considerably downregulating NANOG: ≥ 100 nM
[1]; increasing doses of AP20187
  NANOG mRNA expression in undifferentiated hPSCs: downregulated NANOG mRNA expression
[2]
  differentiated progenitors spared / remaining viable: > 95%
